Measured values: patent US11690850B2, “Inhibitors of receptor interacting protein kinase I for the treatment of disease” (Board of Regents, The University of Texas System, priority 2019, dated 2023)

Experiments:
[1] = molecular target: RIPK1 (Homo sapiens (Human), UniProt Q13546); assay: ADP-Glo Kinase Assay; assay type: biochemical; conditions: 5 nM RIPK1 protein, 50 μM ATP, 6 hr reaction, average value across multiple runs
Procedure: In order to measure RIPK1 activity the ADP-Glo kinase assay (Promega, Catalog #V7002) was used to measure the conversion of ATP to ADP. This enzymatic assay was performed in a 384-well white, Optiplate (Perkin Elmer, Catalog #6007299) with assay buffer consisting of 50 mM HEPES pH 7.5 (Gibco, Catalog #15630-080), 50 mM NaCl (Teknova, Catalog #S0252), 30 mM MgCl2 (Ambion, Catalog #AM9530G), 1 mM DTT (Santa Cruz Biotechnology, Catalog #sc-29089), 0.05% BSA (Sigma, Catalog #A3059-50G) and 0.02% CHAPS (Sigma, Catalog #C5070-5G). Stock solutions of the test compounds were prepared in 100% DMSO (Sigma, Catalog #D2650) and serially diluted 1:3 using 100% DMSO. Compounds were additionally diluted 1:40 in assay buffer, and 2 μL/well were transferred to the assay plate. 4 μL/well (final concentration of 5 nM) of RIPK1 protein (SignalChem, Catalog #R07-11G-05) diluted in assay buffer and added to the assay plate followed by a 10 minute preincutation at room temperature. 4 μL/well of ATP (Promega, Catalog #V7002) (final concentration of 50 μM) diluted in assay buffer were then added to the assay plate followed by a 6 hr reaction time. Final concentrations of RIPK1 and ATP refer to a 10 μL volume. Luminescence was measured using a BioTek Synergy™ NEO plate reader. IC50 values were calculated using a four-parameter logistic curve fit using Genedata Screener software. Results are shown below in Table 4, where the average value across multiple runs is given.

[2] = system: human monocytic cell line U937; assay: Human U937 Cellular Necroptosis Assay; assay type: cell-based; conditions: U-937; U937 cells stimulated with 25 ng/mL human TNFalpha and 25 μM z-VAD-FMK, 22 hr, viability by Cell Titer-Glo 2.0; average value across multiple runs; read-out: hU937 IC50
Procedure: Human U937 Cellular Necroptosis Assay
The human monocytic cell line U937 (CRL-1593.2) was purchased from ATCC. The cells were routinely maintained in RPMI-1640 Medium (Gibco, Catalog #11875-093) supplemented with 10% heat inactivated fetal bovine serum (Gibco, Catalog #16140-071), 100 units/mL penicillin and 100 μg/mL streptomycin (Gibco, Catalog #15140-122), in a humidified incubator (37° C., 5% CO2). For the assay, cells were resuspended in RPMI-1640 phenol red free Media (Gibco, Catalog #11835-030) supplemented with 10% fetal bovine serum (Sigma, Catalog #F2442), 100 units/mL penicillin and 100 ug/mL streptomycin. Cells were stimulated with 25 ng/mL human TNFalpha (Cell Sciences, Catalog #CSI15659B) and 25 μM z-VAD-FMK (R&D Systems, Catalog #FMK001) followed by seeding 5000 cells per well in a volume of 40 μL to a white, CulturPlate-384 (Perkin Elmer, Catalog #6007680). Stock solutions of the test compounds were prepared in 100% DMSO (Sigma, Catalog #D2650) and serially diluted 1:3 using 100% DMSO. Compounds were additionally diluted 1:40 in assay medium, and 10 μL/well was transferred to the plate. Following the compound addition the plate was incubated at 37° C. and 5% CO2 for 22 hr. After 22 hr, viability was assessed with the addition of 20 μL of Cell Titer-Glo 2.0 (Promega, Catalog #G9243). The tissue culture plate was shaken on an orbital shaker at 300 RPM for 15 minutes at room temperature in the dark. Luminescence was measured using a PerkinElmer Envision™ plate reader. IC50 values were calculated using a four-parameter logistic curve fit using Genedata Screener software. Results are shown below in Table 5, where the average value across multiple runs is given.

Sequence of RIPK1 (Q13546 1-327): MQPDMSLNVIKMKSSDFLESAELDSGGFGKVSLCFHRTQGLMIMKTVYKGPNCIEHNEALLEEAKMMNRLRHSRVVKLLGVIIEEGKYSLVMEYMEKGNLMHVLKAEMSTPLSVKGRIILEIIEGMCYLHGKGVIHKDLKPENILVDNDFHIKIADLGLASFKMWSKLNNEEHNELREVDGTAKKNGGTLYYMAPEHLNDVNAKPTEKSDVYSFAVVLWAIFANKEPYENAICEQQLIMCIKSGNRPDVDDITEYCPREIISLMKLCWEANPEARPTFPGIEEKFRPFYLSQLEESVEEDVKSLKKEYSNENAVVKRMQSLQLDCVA

Row | SMILES | IC50 [1] | IC50 [2]
1 | Cc1cc(=O)c(C(=O)Nc2cccc(Cl)c2F)nn1-c1ccccc1 [Example 1, N-(3-chloro-2-fluorophenyl)-6-methyl-4-oxo-1-phenyl-1,4-dihydropyridazine-3-carboxamide] | 32 nM | 136 nM
2 | Cc1cc(=O)c(C(=O)Nc2cccc(Cl)c2F)nn1-c1ccccc1F [Example 8, N-(3-chloro-2-fluorophenyl)-1-(2-fluorophenyl)-6-methyl-4-oxo-1,4-dihydropyridazine-3-carboxamide] | 53 nM | 172 nM
3 | Cc1cc(=O)c(C(=O)Nc2cccc(Cl)c2F)nn1-c1cc(F)ccc1F [Example 9, N-(3-chloro-2-fluorophenyl)-1-(2,5-difluorophenyl)-6-methyl-4-oxo-1,4-dihydropyridazine-3-carboxamide] | 78 nM | 170 nM
4 | Cc1cc(=O)c(C(=O)Nc2cccc(Cl)c2F)nn1-c1cccc(Cl)c1 [Example 17, N-(3-chloro-2-fluorophenyl)-1-(3-chlorophenyl)-6-methyl-4-oxo-1,4-dihydropyridazine-3-carboxamide] | 52 nM | 631 nM
5 | Cc1cc(=O)c(C(=O)Nc2c(Br)cccc2C(C)C)nn1-c1ccccc1 [Example 24, N-(2-bromo-6-isopropylphenyl)-6-methyl-4-oxo-1-phenyl-1,4-dihydropyridazine-3-carboxamide] | 489 nM | 2660 nM
6 | Cc1cccc(C2CC2)c1NC(=O)c1nn(-c2ccccc2)c(C)cc1=O [Example 26, N-(2-cyclopropyl-6-methylphenyl)-6-methyl-4-oxo-1-phenyl-1,4-dihydropyridazine-3-carboxamide] | 668 nM | 3170 nM
7 | Cc1cc(=O)c(C(=O)Nc2cc(Cl)c3c(c2)NC(=O)C3)nn1-c1ccccc1 [Example 32, N-(4-chloro-2-oxoindolin-6-yl)-6-methyl-4-oxo-1-phenyl-1,4-dihydropyridazine-3-carboxamide] | 2250 nM | 5820 nM
8 | Cc1cc(=O)c(C(=O)Nc2c3ccccc3nc3ccccc23)nn1-c1ccccc1 [Example 33, N-(acridin-9-yl)-6-methyl-4-oxo-1-phenyl-1,4-dihydropyridazine-3-carboxamide] | 2190 nM | 8490 nM
9 | Cc1cc(=O)c(C(=O)NC2CCc3ccccc3NC2=O)nn1-c1ccccc1 (centres unmarked) [Example 38, 6-Methyl-4-oxo-N-(2-oxo-2,3,4,5-tetrahydro-1H-benzo[b]azepin-3-yl)-1-phenyl-1,4-dihydropyridazine-3-carboxamide] | 57 nM | 82 nM
10 | Cc1c(Cl)c(=O)c(C(=O)NC2CCc3ccccc3NC2=O)nn1-c1ccccc1 (centres unmarked) [Example 39, 5-Chloro-6-methyl-4-oxo-N-(2-oxo-2,3,4,5-tetrahydro-1H-benzo[b]azepin-3-yl)-1-phenyl-1,4-dihydropyridazine-3-carboxamide] | 18 nM | 69 nM
11 | Cc1c(Cl)c(=O)c(C(=O)NC2CCc3cc(Cl)ccc3NC2=O)nn1-c1ccccc1 (centres unmarked) [Example 40, 5-Chloro-N-(7-chloro-2-oxo-2,3,4,5-tetrahydro-1H-benzo[b]azepin-3-yl)-6-methyl-4-oxo-1-phenyl-1,4-dihydropyridazine-3-carboxamide] | 36 nM | 47 nM
12 | Cc1cc(=O)c(C(=O)NC2CCc3ccccc3N(C)C2=O)nn1-c1ccccc1 (centres unmarked) [Example 41, 6-methyl-N-(1-methyl-2-oxo-2,3,4,5-tetrahydro-1H-benzo[b]azepin-3-yl)-4-oxo-1-phenyl-1,4-dihydropyridazine-3-carboxamide] | 35 nM | 39 nM
13 | Cc1c(Br)c(=O)c(C(=O)NC2CCc3ccccc3NC2=O)nn1-c1ccccc1 (centres unmarked) [Example 42, 5-Bromo-6-methyl-4-oxo-N-(2-oxo-2,3,4,5-tetrahydro-1H-benzo[b]azepin-3-yl)-1-phenyl-1,4-dihydropyridazine-3-carboxamide] | 36 nM | 141 nM
14 | Cc1c(Br)c(=O)c(C(=O)NC2CCc3cc(Br)ccc3NC2=O)nn1-c1ccccc1 (centres unmarked) [Example 43, 5-Bromo-N-(7-bromo-2-oxo-2,3,4,5-tetrahydro-1H-benzo[b]azepin-3-yl)-6-methyl-4-oxo-1-phenyl-1,4-dihydropyridazine-3-carboxamide] | 23 nM | 48 nM
15 | Cc1c(Br)c(=O)c(C(=O)NC2CCc3cc(C#N)ccc3NC2=O)nn1-c1ccccc1 (centres unmarked) [Example 44, 5-Bromo-N-(7-cyano-2-oxo-2,3,4,5-tetrahydro-1H-benzo[b]azepin-3-yl)-6-methyl-4-oxo-1-phenyl-1,4-dihydropyridazine-3-carboxamide] | 62 nM | 160 nM
16 | Cc1c(Cl)c(=O)c(C(=O)NC2CCc3cc(Cl)ccc3N(C)C2=O)nn1-c1ccccc1 (centres unmarked) [Example 45, 5-Chloro-N-(7-chloro-1-methyl-2-oxo-2,3,4,5-tetrahydro-1H-benzo[b]azepin-3-yl)-6-methyl-4-oxo-1-phenyl-1,4-dihydropyridazine-3-carboxamide] | 28 nM | 72 nM
17 | Cc1c(C#N)c(=O)c(C(=O)NC2CCc3ccccc3N(C)C2=O)nn1-c1ccccc1 (centres unmarked) [Example 47, 5-Cyano-6-methyl-N-(1-methyl-2-oxo-2,3,4,5-tetrahydro-1H-benzo[b]azepin-3-yl)-4-oxo-1-phenyl-1,4-dihydropyridazine-3-carboxamide] | 72 nM | 86 nM
18 | CCN1C(=O)[C@@H](NC(=O)c2nn(-c3ccccc3)c(C)cc2=O)COc2cccnc21 [Example 76, (S)-N-(5-ethyl-4-oxo-2,3,4,5-tetrahydro-pyrido[3,2-b][1,4]oxazepin-3-yl)-6-methyl-4-oxo-1-phenyl-1,4-dihydro-pyridazine-3-carboxamide] |  | 5590 nM
19 | Cc1ccc(-n2nc(C(=O)N[C@H]3COc4cccnc4N(C)C3=O)c(=O)cc2C)cc1 [Example 77, (S)-6-methyl-N-(5-methyl-4-oxo-2,3,4,5-tetrahydropyrido[3,2-b][1,4]oxazepin-3-yl)-4-oxo-1-(p-tolyl)-1,4-dihydro-pyridazine-3-carboxamide] |  | 26.5 nM
20 | Cc1cc(=O)c(C(=O)N[C@@H]2C(=O)N(C)c3ncccc3O[C@@H]2C)nn1-c1ccccc1 [Example 78, N-((2R,3S)-2,5-dimethyl-4-oxo-2,3,4,5-tetrahydropyrido[3,2-b]-[1,4]oxazepin-3-yl)-6-methyl-4-oxo-1-phenyl-1,4-dihydropyridazine-3-carboxamide] |  | 150 nM
21 | Cc1cc(=O)c(C(=O)NC2CCc3ccccc3NC2=O)nn1-c1cncc(F)c1 (centres unmarked) [Example 79, 1-(5-fluoropyridin-3-yl)-6-methyl-4-oxo-N-(2-oxo-2,3,4,5-tetrahydro-1H-benzo[b]azepin-3-yl)-1,4-dihydropyridazine-3-carboxamide] |  | 507 nM
22 | Cc1cc(=O)c(C(=O)N[C@@H]2C(=O)Nc3ncccc3O[C@@H]2C)nn1-c1ccccc1 [Example 80, 6-methyl-N-((2R,3S)-2-methyl-4-oxo-2,3,4,5-tetrahydropyrido[3,2-b]-[1,4]oxazepin-3-yl)-4-oxo-1-phenyl-1,4-dihydropyridazine-3-carboxamide] |  | 3710 nM
23 | COc1cc2c(cn1)N(C)C(=O)C(NC(=O)c1nn(-c3ccccc3)c(C)cc1=O)CC2 (centres unmarked) [Example 81, N-(7-methoxy-1-methyl-2-oxo-2,3,4,5-tetrahydro-1H-pyrido[3,4-b]azepin-3-yl)-6-methyl-4-oxo-1-phenyl-1,4-dihydropyridazine-3-carboxamide] |  | 788 nM
24 | Cc1ccc(-n2nc(C(=O)N[C@H]3COc4cccnc4N(C)C3=O)c(=O)c(Cl)c2C)cc1F [Example 82, (S)-5-chloro-1-(3-fluoro-4-methyl-phenyl)-6-methyl-N-(5-methyl-4-oxo-2,3,4,5-tetrahydropyrido[3,2-b]-[1,4]oxazepin-3-yl)-4-oxo-1,4-dihydropyridazine-3-carboxamide] |  | 56.4 nM
